SMILES strings stand for the structures. Calls of active or inactive are those of the source. For most assays here, no stated cut-off is given here; in the data, actives have a measured Kd and inactives only a lower limit.

The Kd is the concentration at which binding is half-saturated.

Test [1] addresses Bone morphogenetic protein receptor type-1B (Homo sapiens, UniProt O00238).
Test [2] addresses Cyclin-dependent kinase 13 (Homo sapiens, UniProt Q14004).
For test [3], the target named is Non-receptor tyrosine-protein kinase TYK2 (Homo sapiens, UniProt P29597).
For test [4], the target named is GTP-binding nuclear protein Ran (Homo sapiens, UniProt P62826).
Test [5] concerns the target Dual specificity mitogen-activated protein kinase kinase 2 (Homo sapiens, UniProt P36507).
For test [6], the target named is BMP-2-inducible protein kinase (Homo sapiens, UniProt Q9NSY1).
The target of test [7] is cAMP-dependent protein kinase catalytic subunit beta (Homo sapiens, UniProt P22694).
For test [8], the target named is Mitogen-activated protein kinase 11 (Homo sapiens, UniProt Q15759).
The target in a further test is Ephrin type-A receptor 7 (Homo sapiens, UniProt Q15375).
The next test concerns the target T1, Ephrin type-B receptor 2 (Homo sapiens, UniProt P29323).
T1 sequence (P29323 whole entry): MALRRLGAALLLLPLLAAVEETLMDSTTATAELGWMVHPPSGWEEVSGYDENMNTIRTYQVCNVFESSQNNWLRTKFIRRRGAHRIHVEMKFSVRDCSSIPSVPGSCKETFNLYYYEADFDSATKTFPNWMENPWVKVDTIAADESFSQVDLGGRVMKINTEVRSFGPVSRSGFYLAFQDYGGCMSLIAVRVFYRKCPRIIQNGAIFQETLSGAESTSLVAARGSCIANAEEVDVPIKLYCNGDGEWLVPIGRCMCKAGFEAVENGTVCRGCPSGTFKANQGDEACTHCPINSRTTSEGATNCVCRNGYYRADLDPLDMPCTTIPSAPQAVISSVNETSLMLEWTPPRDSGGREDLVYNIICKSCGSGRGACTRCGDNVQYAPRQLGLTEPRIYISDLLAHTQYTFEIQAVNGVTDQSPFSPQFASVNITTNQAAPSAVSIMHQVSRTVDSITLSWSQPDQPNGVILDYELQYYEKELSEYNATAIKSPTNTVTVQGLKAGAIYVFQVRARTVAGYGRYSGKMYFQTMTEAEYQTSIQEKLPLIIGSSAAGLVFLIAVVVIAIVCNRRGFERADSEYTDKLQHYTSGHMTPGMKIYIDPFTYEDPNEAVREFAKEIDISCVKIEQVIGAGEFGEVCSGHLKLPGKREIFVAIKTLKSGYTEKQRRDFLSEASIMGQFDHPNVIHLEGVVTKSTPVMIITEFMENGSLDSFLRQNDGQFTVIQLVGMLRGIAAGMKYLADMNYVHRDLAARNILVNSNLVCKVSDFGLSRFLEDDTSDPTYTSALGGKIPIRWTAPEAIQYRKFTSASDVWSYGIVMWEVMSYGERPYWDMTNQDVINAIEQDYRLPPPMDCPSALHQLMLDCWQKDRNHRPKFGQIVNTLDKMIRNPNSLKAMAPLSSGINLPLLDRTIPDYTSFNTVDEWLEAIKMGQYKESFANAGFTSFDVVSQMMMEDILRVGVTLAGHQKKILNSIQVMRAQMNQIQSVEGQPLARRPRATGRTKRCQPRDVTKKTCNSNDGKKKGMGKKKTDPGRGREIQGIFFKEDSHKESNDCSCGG

For test [9], the target named is Tyrosine-protein kinase CSK (Homo sapiens, UniProt P41240).
For test [10], the target named is Bone morphogenetic protein receptor type-1A (Homo sapiens, UniProt P36894).
The target in test [11] is Protein kinase C delta type (Homo sapiens, UniProt Q05655).
Test [12] addresses Serine/threonine-protein kinase MRCK gamma (Homo sapiens, UniProt Q6DT37).
Test [13] concerns the target Tyrosine-protein kinase Fyn (Homo sapiens, UniProt P06241).
The target in test [14] is Receptor-interacting serine/threonine-protein kinase 2 (Homo sapiens, UniProt O43353).
Test [15] concerns the target T2, STE20-related kinase adapter protein alpha (Homo sapiens, UniProt Q7RTN6).
T2 sequence (Q7RTN6 whole entry): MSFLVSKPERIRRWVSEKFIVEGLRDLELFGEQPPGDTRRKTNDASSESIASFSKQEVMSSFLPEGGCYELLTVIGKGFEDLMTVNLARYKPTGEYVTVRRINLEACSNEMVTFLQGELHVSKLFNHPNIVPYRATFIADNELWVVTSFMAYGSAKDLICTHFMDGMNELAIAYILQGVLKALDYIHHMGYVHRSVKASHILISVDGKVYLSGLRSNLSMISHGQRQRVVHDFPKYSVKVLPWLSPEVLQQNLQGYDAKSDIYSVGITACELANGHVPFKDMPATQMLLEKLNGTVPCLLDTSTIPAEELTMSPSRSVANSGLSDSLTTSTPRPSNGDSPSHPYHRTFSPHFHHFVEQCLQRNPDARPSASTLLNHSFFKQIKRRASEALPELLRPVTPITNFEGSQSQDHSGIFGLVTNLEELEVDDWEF

Test [16] addresses cAMP-dependent protein kinase type II-alpha regulatory subunit (Homo sapiens, UniProt P13861).
In test [17] the target is T3, Serine/threonine-protein kinase Chk1 (Homo sapiens, UniProt O14757).
T3 sequence (O14757 whole entry): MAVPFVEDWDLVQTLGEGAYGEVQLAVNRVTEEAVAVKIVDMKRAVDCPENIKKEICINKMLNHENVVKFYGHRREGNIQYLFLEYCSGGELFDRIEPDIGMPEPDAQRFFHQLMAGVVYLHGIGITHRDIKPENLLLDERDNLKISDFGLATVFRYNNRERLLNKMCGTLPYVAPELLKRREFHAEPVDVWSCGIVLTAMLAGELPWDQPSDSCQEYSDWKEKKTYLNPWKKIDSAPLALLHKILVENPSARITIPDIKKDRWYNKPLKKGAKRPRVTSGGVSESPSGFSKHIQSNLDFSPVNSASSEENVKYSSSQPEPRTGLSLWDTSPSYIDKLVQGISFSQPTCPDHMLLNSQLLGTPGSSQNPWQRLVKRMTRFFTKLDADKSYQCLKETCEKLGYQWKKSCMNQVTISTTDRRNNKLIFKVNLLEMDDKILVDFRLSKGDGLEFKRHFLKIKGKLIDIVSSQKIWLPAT

Protein kinase C delta type, sequence (Q05655 whole entry): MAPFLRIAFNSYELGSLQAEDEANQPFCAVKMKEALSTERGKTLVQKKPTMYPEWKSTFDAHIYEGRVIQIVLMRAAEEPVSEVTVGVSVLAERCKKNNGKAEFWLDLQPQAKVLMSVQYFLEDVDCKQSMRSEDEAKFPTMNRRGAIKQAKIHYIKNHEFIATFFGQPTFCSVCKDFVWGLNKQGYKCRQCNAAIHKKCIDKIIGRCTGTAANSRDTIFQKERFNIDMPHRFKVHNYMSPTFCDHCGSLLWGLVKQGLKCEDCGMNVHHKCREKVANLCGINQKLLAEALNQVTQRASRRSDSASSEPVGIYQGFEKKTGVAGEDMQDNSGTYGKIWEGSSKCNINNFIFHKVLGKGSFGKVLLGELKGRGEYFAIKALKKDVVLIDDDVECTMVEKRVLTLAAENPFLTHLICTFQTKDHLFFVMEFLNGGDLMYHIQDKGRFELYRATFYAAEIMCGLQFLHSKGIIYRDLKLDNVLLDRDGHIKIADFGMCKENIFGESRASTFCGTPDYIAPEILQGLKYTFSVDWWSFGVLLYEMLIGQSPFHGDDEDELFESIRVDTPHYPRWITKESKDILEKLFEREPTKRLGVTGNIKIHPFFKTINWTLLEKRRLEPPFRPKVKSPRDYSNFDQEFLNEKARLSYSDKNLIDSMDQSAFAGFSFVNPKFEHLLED
Mitogen-activated protein kinase 11, sequence (Q15759 whole entry): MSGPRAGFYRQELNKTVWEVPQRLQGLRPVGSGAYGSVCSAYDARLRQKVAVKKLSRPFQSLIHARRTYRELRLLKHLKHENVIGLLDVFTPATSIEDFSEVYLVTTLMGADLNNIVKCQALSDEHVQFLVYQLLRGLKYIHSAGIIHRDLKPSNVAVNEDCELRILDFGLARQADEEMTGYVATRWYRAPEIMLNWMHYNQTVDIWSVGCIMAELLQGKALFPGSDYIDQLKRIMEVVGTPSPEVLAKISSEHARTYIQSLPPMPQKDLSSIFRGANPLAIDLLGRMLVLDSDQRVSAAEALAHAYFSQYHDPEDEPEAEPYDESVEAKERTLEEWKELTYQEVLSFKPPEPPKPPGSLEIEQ
Cyclin-dependent kinase 13, sequence (Q14004 whole entry): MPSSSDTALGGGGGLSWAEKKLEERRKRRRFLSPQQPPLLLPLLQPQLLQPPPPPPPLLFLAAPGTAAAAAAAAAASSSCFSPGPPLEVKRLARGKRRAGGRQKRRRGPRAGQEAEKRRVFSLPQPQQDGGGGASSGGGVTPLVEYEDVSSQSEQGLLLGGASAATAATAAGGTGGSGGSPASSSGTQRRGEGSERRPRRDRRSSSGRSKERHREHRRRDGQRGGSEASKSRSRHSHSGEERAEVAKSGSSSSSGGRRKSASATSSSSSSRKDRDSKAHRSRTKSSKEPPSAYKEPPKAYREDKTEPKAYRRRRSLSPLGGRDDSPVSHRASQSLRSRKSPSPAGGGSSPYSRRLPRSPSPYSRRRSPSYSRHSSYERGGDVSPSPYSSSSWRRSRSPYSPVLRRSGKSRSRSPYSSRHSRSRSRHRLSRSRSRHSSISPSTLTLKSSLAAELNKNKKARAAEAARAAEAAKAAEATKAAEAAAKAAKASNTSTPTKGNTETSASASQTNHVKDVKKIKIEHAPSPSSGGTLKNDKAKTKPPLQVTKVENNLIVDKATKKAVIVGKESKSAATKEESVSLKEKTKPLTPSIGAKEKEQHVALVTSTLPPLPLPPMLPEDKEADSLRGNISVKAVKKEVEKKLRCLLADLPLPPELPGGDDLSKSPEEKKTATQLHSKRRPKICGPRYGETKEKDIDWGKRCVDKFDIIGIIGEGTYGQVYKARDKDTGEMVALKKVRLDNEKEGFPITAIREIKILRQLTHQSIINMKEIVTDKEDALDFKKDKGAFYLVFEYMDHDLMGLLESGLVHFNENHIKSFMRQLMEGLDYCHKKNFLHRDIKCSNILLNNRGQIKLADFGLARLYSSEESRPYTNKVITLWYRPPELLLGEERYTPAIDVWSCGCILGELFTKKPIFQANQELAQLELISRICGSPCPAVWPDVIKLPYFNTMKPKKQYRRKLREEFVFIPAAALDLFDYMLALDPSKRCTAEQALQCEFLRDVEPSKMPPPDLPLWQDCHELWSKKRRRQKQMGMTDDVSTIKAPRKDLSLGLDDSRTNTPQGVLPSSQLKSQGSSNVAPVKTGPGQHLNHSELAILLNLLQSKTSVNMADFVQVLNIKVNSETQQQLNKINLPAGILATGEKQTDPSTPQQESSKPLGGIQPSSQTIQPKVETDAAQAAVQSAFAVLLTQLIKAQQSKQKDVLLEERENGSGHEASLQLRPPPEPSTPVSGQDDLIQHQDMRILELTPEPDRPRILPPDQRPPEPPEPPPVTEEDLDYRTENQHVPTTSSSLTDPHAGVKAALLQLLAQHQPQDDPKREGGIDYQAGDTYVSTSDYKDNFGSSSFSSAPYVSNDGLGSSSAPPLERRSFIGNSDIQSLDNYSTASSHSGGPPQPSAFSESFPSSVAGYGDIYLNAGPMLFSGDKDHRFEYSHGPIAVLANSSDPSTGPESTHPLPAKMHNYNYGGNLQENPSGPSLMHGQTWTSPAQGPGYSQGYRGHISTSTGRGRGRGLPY
Tyrosine-protein kinase CSK, sequence (P41240 whole entry): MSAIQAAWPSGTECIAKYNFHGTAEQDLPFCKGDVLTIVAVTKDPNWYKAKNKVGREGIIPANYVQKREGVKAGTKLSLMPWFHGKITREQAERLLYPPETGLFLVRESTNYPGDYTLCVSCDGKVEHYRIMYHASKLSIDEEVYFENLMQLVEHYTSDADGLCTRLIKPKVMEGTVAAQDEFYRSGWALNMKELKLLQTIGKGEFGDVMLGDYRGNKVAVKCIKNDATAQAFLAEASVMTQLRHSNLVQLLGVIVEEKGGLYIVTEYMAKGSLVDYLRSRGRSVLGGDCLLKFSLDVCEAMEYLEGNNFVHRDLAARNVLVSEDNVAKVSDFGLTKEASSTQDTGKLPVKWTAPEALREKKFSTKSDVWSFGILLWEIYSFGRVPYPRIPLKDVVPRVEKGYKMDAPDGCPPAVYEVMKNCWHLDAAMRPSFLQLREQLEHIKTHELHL
Ephrin type-A receptor 7, sequence (Q15375 whole entry): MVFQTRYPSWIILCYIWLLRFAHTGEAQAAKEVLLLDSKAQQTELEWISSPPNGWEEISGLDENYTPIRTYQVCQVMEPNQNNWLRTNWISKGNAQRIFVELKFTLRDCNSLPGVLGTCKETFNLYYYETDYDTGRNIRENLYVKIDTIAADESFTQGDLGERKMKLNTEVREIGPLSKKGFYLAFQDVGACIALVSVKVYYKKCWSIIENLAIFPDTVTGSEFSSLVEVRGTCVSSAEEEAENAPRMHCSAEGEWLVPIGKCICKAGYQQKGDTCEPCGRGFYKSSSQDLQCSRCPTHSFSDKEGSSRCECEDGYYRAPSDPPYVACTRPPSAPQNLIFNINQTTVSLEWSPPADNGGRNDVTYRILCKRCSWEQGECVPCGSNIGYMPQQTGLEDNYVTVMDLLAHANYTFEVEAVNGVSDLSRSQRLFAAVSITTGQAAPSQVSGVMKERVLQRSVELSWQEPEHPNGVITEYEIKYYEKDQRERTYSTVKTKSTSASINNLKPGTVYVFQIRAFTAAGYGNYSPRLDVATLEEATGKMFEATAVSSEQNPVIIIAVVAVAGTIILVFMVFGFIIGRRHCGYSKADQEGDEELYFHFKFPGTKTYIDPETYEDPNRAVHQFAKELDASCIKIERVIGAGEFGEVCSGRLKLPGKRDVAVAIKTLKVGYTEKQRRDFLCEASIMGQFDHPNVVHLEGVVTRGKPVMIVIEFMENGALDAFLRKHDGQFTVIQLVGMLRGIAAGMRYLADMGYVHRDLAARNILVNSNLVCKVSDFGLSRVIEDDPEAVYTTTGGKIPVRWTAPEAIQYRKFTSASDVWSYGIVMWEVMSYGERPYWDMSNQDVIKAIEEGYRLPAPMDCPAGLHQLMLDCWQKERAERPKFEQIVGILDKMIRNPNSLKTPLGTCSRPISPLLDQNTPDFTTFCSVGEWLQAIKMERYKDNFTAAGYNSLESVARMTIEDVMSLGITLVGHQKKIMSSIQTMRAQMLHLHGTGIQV
Bone morphogenetic protein receptor type-1B, sequence (O00238 whole entry): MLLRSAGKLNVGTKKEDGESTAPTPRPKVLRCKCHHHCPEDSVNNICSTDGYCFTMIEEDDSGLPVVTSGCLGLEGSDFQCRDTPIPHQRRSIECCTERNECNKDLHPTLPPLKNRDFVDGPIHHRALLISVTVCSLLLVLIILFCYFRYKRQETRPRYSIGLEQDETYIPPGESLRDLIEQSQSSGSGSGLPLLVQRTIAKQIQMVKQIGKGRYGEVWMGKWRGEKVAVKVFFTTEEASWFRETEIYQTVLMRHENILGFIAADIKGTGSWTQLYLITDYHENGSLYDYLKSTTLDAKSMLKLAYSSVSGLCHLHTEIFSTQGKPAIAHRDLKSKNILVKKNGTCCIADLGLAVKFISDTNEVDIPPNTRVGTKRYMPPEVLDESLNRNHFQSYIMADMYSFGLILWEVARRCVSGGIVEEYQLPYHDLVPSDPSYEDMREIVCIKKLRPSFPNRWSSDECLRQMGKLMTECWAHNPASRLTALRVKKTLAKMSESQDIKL
Dual specificity mitogen-activated protein kinase kinase 2, sequence (P36507 whole entry): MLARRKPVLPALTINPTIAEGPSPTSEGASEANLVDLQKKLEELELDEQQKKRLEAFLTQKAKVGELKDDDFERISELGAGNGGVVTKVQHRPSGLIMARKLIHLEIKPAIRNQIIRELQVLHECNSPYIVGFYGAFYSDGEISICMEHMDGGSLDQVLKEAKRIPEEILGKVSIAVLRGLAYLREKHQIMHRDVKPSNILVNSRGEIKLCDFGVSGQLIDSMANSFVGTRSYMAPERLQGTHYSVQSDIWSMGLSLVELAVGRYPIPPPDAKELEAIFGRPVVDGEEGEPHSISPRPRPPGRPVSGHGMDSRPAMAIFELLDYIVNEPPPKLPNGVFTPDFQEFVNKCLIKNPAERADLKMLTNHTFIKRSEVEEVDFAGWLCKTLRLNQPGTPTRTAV

With `O=S(=O)(c1cccc2c(O)nccc12)N1CCCNCC1` [HYDROXYFASUDIL], the Kd in test [1], in test [2], in [3], in test [4], in [5] and in [6] was > 30 µM (inactive) throughout. The Kd (in [7]; in [8]; on Ephrin type-A receptor 7; at Ephrin type-B receptor 2; in [9]; in [10]) was > 30 µM (inactive) throughout. In addition, the Kd in test [11], in [12], in test [13], in test [14], in test [15] and in test [16] was > 30 µM (inactive) in each case. In test [17], the Kd was > 30 µM (inactive).

As to `O=c1[nH]c([C@@H]2CCCN2)nc2c1oc1ccc(Cl)cc12`, the Kd in test [1], in test [2], in test [3], in test [4], in [5] and in test [6] was > 30 µM (inactive) in each case. In addition, the Kd (in test [7]; in test [8]; on Ephrin type-A receptor 7; on Ephrin type-B receptor 2; in test [9]; in test [10]) was > 30 µM (inactive) in each case. Moreover, the Kd in [11], in [12], in [13], in [14], in test [15] and in test [16] was > 30 µM (inactive) throughout. Also, the Kd in test [17] was > 30 µM (inactive).

Turning to `Cc1c(Cn2c(C)nc3c(C(=O)O)cc(N4CCOCC4)cc32)cccc1C(F)(F)F` [GSK-2636771], the Kd in test [1], in test [2], in [3], in [4], in test [5] and in [6] was > 30 µM (inactive) in each case. In addition, the Kd (in test [7]; in test [8]; on Ephrin type-A receptor 7; at Ephrin type-B receptor 2; in [9]; in test [10]) was > 30 µM (inactive) each time. Moreover, the Kd in test [11], in [12], in test [13], in test [14], in [15] and in test [16] was > 30 µM (inactive) throughout. In test [17], the Kd is > 30 µM (inactive).

For `COc1cc2ncnc(Nc3ccc(O)cc3)c2cc1OC` [WHI-P131], the Kd in test [1], in test [2], in test [3], in test [4], in test [5] and in [6] was > 30 µM (inactive) each time. The Kd (in test [7]; in [8]; at Ephrin type-A receptor 7; on Ephrin type-B receptor 2; in test [9]; in test [10]) was > 30 µM (inactive) in each case. Moreover, the Kd in [11] is > 30 µM (inactive); in [12], > 30 µM (inactive); in [13], > 30 µM (inactive); in [14], 5.94 µM (active); in test [15], > 30 µM (inactive); in test [16] it was > 30 µM (inactive). The Kd in test [17] is > 30 µM (inactive).

As for `Cn1c(=O)c(F)c(Nc2ccc(I)cc2F)c2c(=O)n(C[C@@H](O)CO)cnc21` [TAK-733], the Kd in test [1] was > 30 µM (inactive); in [2], > 30 µM (inactive); in test [3], > 30 µM (inactive); in test [4], > 30 µM (inactive); in test [5] it was 0.02 µM (active); in [6] it was > 30 µM (inactive). Also, the Kd (in test [7]; in test [8]; at Ephrin type-A receptor 7; on Ephrin type-B receptor 2; in test [9]; in test [10]) was > 30 µM (inactive) throughout. In addition, the Kd in test [11], in test [12], in test [13], in test [14], in [15] and in test [16] was > 30 µM (inactive) throughout. Besides, the Kd in [17] was > 30 µM (inactive).

As for `S=C(NCc1ccc2c(c1)OCO2)N1CCN(c2ncnc3c2oc2ccccc23)CC1` [AMUVATINIB], the Kd in test [1], in test [2], in test [3], in test [4], in test [5] and in test [6] was > 30 µM (inactive) each time. Also, the Kd (in test [7]; in [8]; at Ephrin type-A receptor 7; at Ephrin type-B receptor 2; in test [9]; in test [10]) was > 30 µM (inactive) each time. Also, the Kd in test [11], in test [12], in test [13], in [14], in test [15] and in [16] was > 30 µM (inactive) in each case. Further, the Kd in test [17] is > 30 µM (inactive).

(Values after ChEMBL document CHEMBL3991601, “The target landscape of clinical kinase drugs” (Science, 2017).)
